# Experiment: logP determination by HPLC (EEC Directive 79/831 Annex V. A8)
# Details: not given
row,chromatographic logP,Compound
1,0.37,"Nc1nnc(Br)[nH]1 [Example 185, 5-bromo-1,2,4-triazole-3-amine]"

# Same assay, conditions: HPLC, gradient method, acetonitrile/0.1% aqueous phosphoric acid
row,log.P,Compound
1,4.4,C=C(C)CN(CC)c1c(-c2c(F)cc(F)cc2F)c(Cl)nc2nc(Br)nn12 [Example 76]
2,3.5,Fc1cc(F)c(-c2c(Cl)nc3nc(Br)nn3c2NCC2CC2)c(F)c1 [Example 62]
3,4.3,C=C(C)CN(CC)c1c(-c2ccc(F)cc2F)c(Cl)nc2nc(Cl)nn12 [Example 118]
4,3.52,CC(Nc1c(-c2c(F)cc(F)cc2F)c(Cl)nc2nc(N(C)C)nn12)C(F)(F)F (stereo not drawn) [Example 3]
5,1.65,CCN(CCN(C)C)c1c(-c2ccc(F)cc2F)c(Cl)nc2nc(Cl)nn12 [Example 117]
6,1.51,CN(C)CCN(C)c1c(-c2ccc(F)cc2F)c(Cl)nc2nc(Cl)nn12 [Example 110]
7,3.69,CN(Cc1ccco1)c1c(-c2ccc(F)cc2F)c(Cl)nc2nc(Cl)nn12 [Example 113]
8,3.46,CCCNc1c(-c2ccccc2Cl)c(Cl)nc2nc(Cl)nn12 [Example 33]
9,3.39,CON(C)c1c(-c2c(F)cc(F)cc2F)c(Cl)nc2nc(Br)nn12 [Example 68]
10,4.16,C=CCN(CC)c1c(-c2c(F)cccc2Cl)c(Cl)nc2nc(Cl)nn12 [Example 137]
11,3.36,Fc1ccc(-c2c(Cl)nc3nc(Cl)nn3c2NCC2CC2)c(F)c1 [Example 107]
12,3.55,Fc1cc(F)c(-c2c(Cl)nc3nc(Cl)nn3c2N2CCC(F)CC2)c(F)c1 [Example 83]
13,3.42,CC(C)Nc1c(-c2c(F)cccc2Cl)c(Cl)nc2nc(Cl)nn12 [Example 94]
14,3.18,CN(C)Nc1c(-c2ccccc2Cl)c(Cl)nc2nc(Cl)nn12 [Example 40]
15,3.67,CC(C)CN(N)c1c(-c2c(F)cc(F)cc2F)c(Cl)nc2nc(Br)nn12 [Example 65]
16,3.87,CCN(CC1CCCO1)c1c(-c2ccc(F)cc2F)c(Cl)nc2nc(Cl)nn12 (stereo not drawn) [Example 121]
17,3.18,COc1nc2nc(Cl)c(-c3c(F)cc(F)cc3OC)c(NC(C)C(F)(F)F)n2n1 (stereo not drawn) [Example 80]
18,3.63,C[C@@H](Nc1c(-c2ccccc2Cl)c(Cl)nc2nc(Cl)nn12)C(F)(F)F [Example 97]
19,3.4,CC(C)Nc1c(-c2c(F)cc(F)cc2F)c(Cl)nc2nc(Br)nn12 [Example 43]
20,4.4,C=C(C)CN(CC)c1c(-c2c(F)cc(F)cc2F)c(Cl)nc2nc(Cl)nn12 [Example 78]
21,3.76,CCC(C)Nc1c(-c2c(F)cc(F)cc2F)c(Cl)nc2nc(Br)nn12 (stereo not drawn) [Example 64]
22,3.72,Fc1cc(F)c(-c2c(Cl)nc3nc(Br)nn3c2N2CCSCC2)c(F)c1 [Example 61]

row,log.P,Compound
1,3.36,CC(C)Nc1c(-c2c(F)cc(F)cc2F)c(Cl)nc2nc(Cl)nn12 [Example 47]
2,3.68,Fc1cc(F)c(-c2c(Cl)nc3nc(Cl)nn3c2N2CCSCC2)c(F)c1 [Example 15]
3,2.7,CNc1c(-c2ccccc2Cl)c(Cl)nc2nc(Cl)nn12 [Example 36]
4,3.54,Fc1cccc(Cl)c1-c1c(Cl)nc2nc(Cl)nn2c1N1CCCC1 [Example 134]
5,2.91,COCCNc1c(-c2ccccc2Cl)c(Cl)nc2nc(Cl)nn12 [Example 35]
6,3.55,Clc1nc2nc(Cl)c(-c3ccccc3Cl)c(NCC3CC3)n2n1 [Example 19]
7,4.45,CC1CCN(c2c(-c3c(F)cc(F)cc3F)c(Cl)nc3nc(Cl)nn23)CC1 [Example 90]
8,4.21,CC1=CCCN(c2c(-c3c(F)cc(F)cc3F)c(Cl)nc3nc(Cl)nn23)C1 [Example 87]
9,3.1,Fc1cc(F)c(-c2c(Cl)nc3nc(Cl)nn3c2NC2CC2)c(F)c1 [Example 14]
10,3.9,CCCN(CCOC)c1c(-c2ccc(F)cc2F)c(Cl)nc2nc(Cl)nn12 [Example 128]
11,3.45,CC(C)Nc1c(-c2ccccc2Cl)c(Cl)nc2nc(Br)nn12 [Example 45]
12,4.62,CC1CCN(c2c(-c3ccccc3Cl)c(Cl)nc3nc(Cl)nn23)CC1 [Example 82]
13,2.99,Fc1cc(F)c(-c2c(Cl)nc3nc(Cl)nn3c2N2CCOCC2)c(F)c1 [Example 5]
14,3.03,Clc1nc2nc(Cl)c(-c3ccccc3Cl)c(N3CCOCC3)n2n1 [Example 27]
15,3.52,CC(Nc1c(-c2ccc(F)cc2F)c(Cl)nc2nc(Cl)nn12)C(F)(F)F (stereo not drawn) [Example 96]
16,4.48,CCCN(CC1CC1)c1c(-c2ccc(F)cc2F)c(Cl)nc2nc(Cl)nn12 [Example 126]
17,4.87,CC(Nc1c(-c2c(F)cc(F)cc2F)c(Cl)nc2nc(Cl)nn12)C1CCCCC1 (stereo not drawn) [Example 23]
18,3.02,Fc1cccc(Cl)c1-c1c(Cl)nc2nc(Cl)nn2c1N1CCOCC1 [Example 132]
19,3.63,CCC(C)Nc1c(-c2ccc(F)cc2F)c(Cl)nc2nc(Cl)nn12 (stereo not drawn) [Example 102]
20,3.95,C=CCN(CC)c1c(-c2ccc(F)cc2F)c(Cl)nc2nc(Cl)nn12 [Example 119]
21,3.36,CON(C)c1c(-c2c(F)cc(F)cc2F)c(Cl)nc2nc(Cl)nn12 [Example 71]
22,3.28,Fc1cc(F)c(-c2c(Cl)nc3nc(Cl)nn3c2N2CCCCC2C(F)(F)F)c(F)c1 (stereo not drawn) [Example 67]

row,log.P,Compound
1,3.96,CC(C)C(C)Nc1c(-c2ccc(F)cc2F)c(Cl)nc2nc(Cl)nn12 (stereo not drawn) [Example 173]
2,4.87,CCC1=CCN(c2c(-c3ccccc3Cl)c(Cl)nc3nc(Cl)nn23)CC1 [Example 93]
3,4.45,CC1CCCN(c2c(-c3c(F)cc(F)cc3F)c(Cl)nc3nc(Cl)nn23)C1 (stereo not drawn) [Example 88]
4,3.61,CC(C)CNc1c(-c2ccc(F)cc2F)c(Cl)nc2nc(Cl)nn12 [Example 101]
5,3.51,CCN(CCOC)c1c(-c2ccc(F)cc2F)c(Cl)nc2nc(Cl)nn12 [Example 122]
6,3.98,C=C(C)CN(C)c1c(-c2ccc(F)cc2F)c(Cl)nc2nc(Cl)nn12 [Example 116]
7,3.76,Clc1nc2nc(Cl)c(-c3ccccc3Cl)c(N3CCSCC3)n2n1 [Example 38]
8,3.41,CCCNc1c(-c2c(F)cc(F)cc2F)c(Cl)nc2nc(Br)nn12 [Example 54]
9,2.99,COCCNc1c(-c2c(F)cc(F)cc2F)c(Cl)nc2nc(Br)nn12 [Example 55]
10,3.85,CCN(CC)c1c(-c2c(F)cc(F)cc2F)c(Cl)nc2nc(Cl)nn12 [Example 9]
11,3.61,CCN(CCOC)c1c(-c2c(F)cc(F)cc2F)c(Cl)nc2nc(Cl)nn12 [Example 77]
12,4.08,CC(C)CN(C)c1c(-c2ccc(F)cc2F)c(Cl)nc2nc(Cl)nn12 [Example 114]
13,3.07,CCNc1c(-c2c(F)cc(F)cc2F)c(Cl)nc2nc(Br)nn12 [Example 51]
14,3.31,CC(C)Nc1c(-c2ccc(F)cc2F)c(Cl)nc2nc(Cl)nn12 [Example 95]
15,3.14,CN(CC1OCCO1)c1c(-c2ccc(F)cc2F)c(Cl)nc2nc(Cl)nn12 [Example 112]
16,2.67,CNc1c(-c2c(F)cc(F)cc2F)c(Cl)nc2nc(Cl)nn12 [Example 13]
17,4.09,CC(C)C(C)Nc1c(-c2c(F)cccc2Cl)c(Cl)nc2nc(Cl)nn12 (stereo not drawn) [Example 172]
18,2.77,Fc1cc(F)c(-c2c(Cl)nc3nc(Br)nn3c2NN2CCOCC2)c(F)c1 [Example 57]
19,3.81,CC1CN(c2c(-c3ccccc3Cl)c(Cl)nc3nc(Cl)nn23)CC(C)O1 (stereo not drawn) [Example 28]
20,3.49,Fc1cccc(Cl)c1-c1c(Cl)nc2nc(Cl)nn2c1NCC1CC1 [Example 143]
21,3.5,Fc1cc(F)c(-c2c(Cl)nc3nc(Br)nn3c2N2CCCC2)c(F)c1 [Example 52]
22,3.07,CCNc1c(-c2c(F)cc(F)cc2F)c(Cl)nc2nc(Cl)nn12 [Example 7]

row,log.P,Compound
1,4.64,CC1CCCN(c2c(-c3ccccc3Cl)c(Cl)nc3nc(Cl)nn23)C1 (stereo not drawn) [Example 92]
2,3.61,CCOC(=O)CN(CC)c1c(-c2ccc(F)cc2F)c(Cl)nc2nc(Cl)nn12 [Example 123]
3,3.72,CC1CN(c2c(-c3c(F)cc(F)cc3F)c(Cl)nc3nc(Br)nn23)CC(C)O1 (stereo not drawn) [Example 50]
4,3.33,CC(C)NNc1c(-c2c(F)cc(F)cc2F)c(Cl)nc2nc(N(C)C)nn12 [Example 4]
5,3.62,CCN(CCOC)c1c(-c2c(F)cc(F)cc2F)c(Cl)nc2nc(Br)nn12 [Example 75]
6,3.7,CCC(C)Nc1c(-c2c(F)cc(F)cc2F)c(Cl)nc2nc(Cl)nn12 (stereo not drawn) [Example 74]
7,2.91,COCCNc1c(-c2c(F)cc(F)cc2F)c(Cl)nc2nc(Cl)nn12 [Example 12]
8,4.32,Clc1nc2nc(Cl)c(-c3ccccc3Cl)c(NC3CCCCC3)n2n1 [Example 42]
9,3.46,Fc1cc(F)c(-c2c(Cl)nc3nc(Cl)nn3c2N2CCCC2)c(F)c1 [Example 8]
10,3.9,CC(C)(C)Nc1c(-c2c(F)cc(F)cc2F)c(Cl)nc2nc(Cl)nn12 [Example 25]
11,3.18,CN(C)c1c(-c2ccccc2Cl)c(Cl)nc2nc(Cl)nn12 [Example 26]
12,3.03,Fc1cc(F)c(-c2c(Cl)nc3nc(Br)nn3c2N2CCOCC2)c(F)c1 [Example 49]
13,5,Fc1cc(F)c(-c2c(Cl)nc3nc(Cl)nn3c2N2CCC(C(F)(F)F)CC2)c(F)c1 [Example 46]
14,3.21,C#CCN(C)c1c(-c2ccc(F)cc2F)c(Cl)nc2nc(Cl)nn12 [Example 111]
15,2.82,COCCNc1c(-c2ccc(F)cc2F)c(Cl)nc2nc(Cl)nn12 [Example 104]
16,3.14,Fc1cc(F)c(-c2c(Cl)nc3nc(Br)nn3c2NC2CC2)c(F)c1 [Example 56]
17,4.33,CC1CCCCN1c1c(-c2c(F)cc(F)cc2F)c(Cl)nc2nc(Cl)nn12 (stereo not drawn) [Example 85]
18,3.2,COCCN(C)c1c(-c2ccc(F)cc2F)c(Cl)nc2nc(Cl)nn12 [Example 115]
19,3.73,Fc1cccc(Cl)c1-c1c(Cl)nc2nc(Cl)nn2c1N1CCSCC1 [Example 131]

row,Compound,log.P
1,FC(F)C(F)(F)CNNc1c(-c2ccccc2Cl)c(Cl)nc2nc(Cl)nn12 [Example 18],3.59

# Source: patent US20050222173A1, “Triazolopyrimidines” (priority 2002, published 2005)
